# According to US20260049077A1, “Neurotrophic Receptor Tyrosine Kinase (NTRK) Inhibitors and Methods Using Same” (Baylor College of Medicine, priority 2022, published 2026):
# “And” between values parts separate entries of the source, which are not always exact repeats. Identical values can stand only once. “Also recorded” adds a separate entry of the source. Like-named read-outs stand apart in the source and are kept apart here.
# Legend:
# [1] = molecular target: T1, NTRK2 (Homo sapiens (Human), UniProt Q16620); test: NTRK2 inhibition (IC50); type: biochemical
# [2] = molecular target: CDKL1 (Homo sapiens (Human), UniProt Q00532); test: Promega K192 cell-based NanoBRET kinase occupancy assay
# Description: (§1) Similarly, the selectivity of CDD-3031 for NTRK kinases was evaluated in a kinase occupancy assay (Promega K192 cell-based NanoBRET assay) using 192 kinases (Table 4).
# [3] = molecular target: CSNK1A1L (Homo sapiens (Human), UniProt Q8N752); test: as above
# Description: as §1
# [4] = molecular target: ITK (Homo sapiens (Human), UniProt Q08881); test: as above
# Description: as §1
# [5] = molecular target: MAP3K12 (Homo sapiens (Human), UniProt Q12852); test: as above
# Description: as §1
# [6] = molecular target: T2, NTRK1 (Homo sapiens (Human), UniProt P04629); test: as above
# Description: as §1
# [7] = molecular target: T1, NTRK2; test: as above
# Description: as §1
# [8] = molecular target: PKMYT1 (Homo sapiens (Human), UniProt Q99640); test: as above
# Description: as §1
# [9] = molecular target: SGK1 (Homo sapiens (Human), UniProt O00141); test: as above
# Description: as §1
# [10] = molecular target: STK11 (Homo sapiens (Human), UniProt Q15831); test: as above
# Description: as §1
# [11] = molecular target: ULK2 (Homo sapiens (Human), UniProt Q8IYT8); test: as above
# Description: as §1
# [12] = molecular target: WEE1 (Homo sapiens (Human), UniProt P30291); test: as above
# Description: as §1
# [13] = Pharmacokinetics of CDD-3031 in mice, oral gavage; type: in vivo, mouse; settings: oral gavage 50 mg/kg, n = 3, mean ± SD
# Description: CDD-2330 was dissolved in 10% DMSO+0.5% methyl cellulose at 5 mg/mL. CDD-2330 was orally delivered at 50 mg/kg to mice (n=4). Blood samples were collected at 0, 0.25, 0.5, 1, 2, 4, 6, 8, and 24 h. Samples were analyzed by LC-MS, and the concentration of CDD-2330 was quantified with a standard curve (range: 0-10 μM). CDD-3031 was administered by oral gavage at a dose of 50 mg/kg. Blood samples were collected at […], 0.167, 0.25, 0.5, 1, 2, 4, 6, 8, and 24 h.
# [14] = Brain uptake in mice 24 hours post-administration; type: in vivo, mouse
# [15] = Plasma ALT and AST in mice after a high dose (50 mg/kg); type: in vivo, mouse
# [16] = system: endometriotic lesions; test: Endometriosis mouse model, lesion efficacy; type: in vivo; settings: 10 mg/kg, excised lesions
# Description: FIGS. 17A-17F depict the robust efficacy of the inhibitory compounds of the present disclosure as NTRK2 inhibitors for inhibition of endometriotic lesion growth in mice utilizing CDD-3132 as an example. FIG. 17A provides a schematic overview of the experiment performed. FIGS. 17B-17C provide photographs showing excised lesions with administration of a control (FIG. 17B) or CDD-3132 (10 mg/kg/day) (FIG. 17C).
# (§2) In one aspect, the present disclosure provides exemplary data relating to the administration of NTRK2 inhibitors in a mouse model of endometriosis (FIG. 14). In certain embodiments, the recipient mouse is administered the NTRK2 inhibitor and/or controls on day 14 after intraperitoneal injection of endometrium of the donor mouse. In certain embodiments, the recipient mouse is sacrificed and quantitatively assessed on day 28.
# [17] = Endometriosis mouse model, liver and kidney toxicity (organ weight, ALT, AST); type: in vivo; parameters: ALT (Mean ± SD) / AST (Mean ± SD): unit not given here
# Description: as §2
# [18] = molecular target: T2, NTRK1; test: NTRK1 inhibition (IC50); settings: read-out: NTRK1 IC50
# [19] = molecular target: NTRK3 (Homo sapiens (Human), UniProt Q16288); test: NTRK3 inhibition (IC50); settings: read-out: NTRK3 IC50
# [20] = plasma, 24 h after 50 mg/kg CDD-3031 by oral gavage, individual mice
# [21] = i.p. dose of 10 mg/kg/day for 14 days
# Sequence of CSNK1A1L (Q8N752 whole entry): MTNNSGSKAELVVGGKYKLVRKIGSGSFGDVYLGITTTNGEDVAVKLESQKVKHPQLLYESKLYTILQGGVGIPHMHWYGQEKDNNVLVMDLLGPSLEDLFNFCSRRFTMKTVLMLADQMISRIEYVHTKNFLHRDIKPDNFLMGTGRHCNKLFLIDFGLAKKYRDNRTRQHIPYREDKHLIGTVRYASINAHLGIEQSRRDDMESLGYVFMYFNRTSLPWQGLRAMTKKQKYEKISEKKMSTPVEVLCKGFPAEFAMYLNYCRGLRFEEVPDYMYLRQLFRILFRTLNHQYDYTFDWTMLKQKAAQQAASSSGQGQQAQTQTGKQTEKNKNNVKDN
# Sequence of SGK1 (O00141 whole entry): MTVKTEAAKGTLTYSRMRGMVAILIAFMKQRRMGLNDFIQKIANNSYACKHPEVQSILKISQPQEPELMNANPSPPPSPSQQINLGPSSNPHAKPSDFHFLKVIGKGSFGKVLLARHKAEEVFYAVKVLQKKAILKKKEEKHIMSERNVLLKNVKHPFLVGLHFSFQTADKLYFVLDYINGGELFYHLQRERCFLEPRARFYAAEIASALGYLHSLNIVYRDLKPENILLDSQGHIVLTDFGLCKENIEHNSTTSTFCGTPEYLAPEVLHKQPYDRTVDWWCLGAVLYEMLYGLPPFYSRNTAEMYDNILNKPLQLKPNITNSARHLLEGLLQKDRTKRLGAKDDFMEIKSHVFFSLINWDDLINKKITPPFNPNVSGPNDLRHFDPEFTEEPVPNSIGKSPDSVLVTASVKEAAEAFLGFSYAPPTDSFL
# T2 sequence (P04629 33-796): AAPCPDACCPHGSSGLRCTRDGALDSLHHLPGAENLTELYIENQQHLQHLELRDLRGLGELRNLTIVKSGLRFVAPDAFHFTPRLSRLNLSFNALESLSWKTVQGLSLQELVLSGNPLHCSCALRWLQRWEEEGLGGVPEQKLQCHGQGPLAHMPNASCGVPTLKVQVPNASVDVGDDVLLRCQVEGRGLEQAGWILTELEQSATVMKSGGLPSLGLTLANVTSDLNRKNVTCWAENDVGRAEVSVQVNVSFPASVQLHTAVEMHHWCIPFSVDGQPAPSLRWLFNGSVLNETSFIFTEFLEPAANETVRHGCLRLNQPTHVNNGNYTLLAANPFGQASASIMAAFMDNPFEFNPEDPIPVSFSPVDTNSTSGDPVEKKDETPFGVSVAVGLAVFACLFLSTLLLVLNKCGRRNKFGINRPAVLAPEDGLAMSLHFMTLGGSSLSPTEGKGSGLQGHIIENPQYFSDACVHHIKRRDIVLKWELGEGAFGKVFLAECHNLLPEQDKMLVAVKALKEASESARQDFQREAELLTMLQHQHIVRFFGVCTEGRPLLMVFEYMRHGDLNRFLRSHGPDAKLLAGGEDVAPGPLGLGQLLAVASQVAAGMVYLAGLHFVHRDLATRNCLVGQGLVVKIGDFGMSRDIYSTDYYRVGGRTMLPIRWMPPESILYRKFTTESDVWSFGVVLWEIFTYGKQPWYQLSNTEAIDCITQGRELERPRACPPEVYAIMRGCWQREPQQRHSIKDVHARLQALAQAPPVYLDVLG
# Sequence of WEE1 (P30291 whole entry): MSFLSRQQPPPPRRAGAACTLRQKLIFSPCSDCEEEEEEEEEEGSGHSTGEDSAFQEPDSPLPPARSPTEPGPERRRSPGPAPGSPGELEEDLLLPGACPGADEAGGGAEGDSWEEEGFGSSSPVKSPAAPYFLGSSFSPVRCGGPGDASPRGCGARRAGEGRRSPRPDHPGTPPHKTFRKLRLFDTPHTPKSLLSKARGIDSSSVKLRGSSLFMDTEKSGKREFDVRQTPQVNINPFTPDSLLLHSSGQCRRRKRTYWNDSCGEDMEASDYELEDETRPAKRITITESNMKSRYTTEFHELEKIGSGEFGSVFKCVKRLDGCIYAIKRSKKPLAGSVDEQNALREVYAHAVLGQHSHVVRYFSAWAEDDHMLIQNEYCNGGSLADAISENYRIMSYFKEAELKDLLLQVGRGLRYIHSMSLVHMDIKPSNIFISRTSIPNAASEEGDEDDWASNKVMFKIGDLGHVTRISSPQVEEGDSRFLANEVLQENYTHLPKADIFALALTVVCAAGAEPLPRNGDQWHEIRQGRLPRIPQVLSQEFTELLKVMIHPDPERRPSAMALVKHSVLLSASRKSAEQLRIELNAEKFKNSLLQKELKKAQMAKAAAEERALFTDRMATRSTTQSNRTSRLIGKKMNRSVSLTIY
# Sequence of STK11 (Q15831 whole entry): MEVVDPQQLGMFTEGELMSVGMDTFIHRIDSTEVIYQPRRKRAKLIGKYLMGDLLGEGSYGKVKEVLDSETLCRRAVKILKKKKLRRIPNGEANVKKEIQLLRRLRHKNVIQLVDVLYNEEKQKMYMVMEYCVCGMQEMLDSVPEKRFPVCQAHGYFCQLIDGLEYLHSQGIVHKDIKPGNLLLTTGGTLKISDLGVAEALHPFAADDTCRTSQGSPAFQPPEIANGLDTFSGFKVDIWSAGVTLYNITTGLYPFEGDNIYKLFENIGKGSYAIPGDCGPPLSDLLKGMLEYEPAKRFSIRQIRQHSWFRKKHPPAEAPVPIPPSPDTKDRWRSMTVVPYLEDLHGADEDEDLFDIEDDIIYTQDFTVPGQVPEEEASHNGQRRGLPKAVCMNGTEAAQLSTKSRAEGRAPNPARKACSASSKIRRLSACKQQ
# Sequence of ULK2 (Q8IYT8 whole entry): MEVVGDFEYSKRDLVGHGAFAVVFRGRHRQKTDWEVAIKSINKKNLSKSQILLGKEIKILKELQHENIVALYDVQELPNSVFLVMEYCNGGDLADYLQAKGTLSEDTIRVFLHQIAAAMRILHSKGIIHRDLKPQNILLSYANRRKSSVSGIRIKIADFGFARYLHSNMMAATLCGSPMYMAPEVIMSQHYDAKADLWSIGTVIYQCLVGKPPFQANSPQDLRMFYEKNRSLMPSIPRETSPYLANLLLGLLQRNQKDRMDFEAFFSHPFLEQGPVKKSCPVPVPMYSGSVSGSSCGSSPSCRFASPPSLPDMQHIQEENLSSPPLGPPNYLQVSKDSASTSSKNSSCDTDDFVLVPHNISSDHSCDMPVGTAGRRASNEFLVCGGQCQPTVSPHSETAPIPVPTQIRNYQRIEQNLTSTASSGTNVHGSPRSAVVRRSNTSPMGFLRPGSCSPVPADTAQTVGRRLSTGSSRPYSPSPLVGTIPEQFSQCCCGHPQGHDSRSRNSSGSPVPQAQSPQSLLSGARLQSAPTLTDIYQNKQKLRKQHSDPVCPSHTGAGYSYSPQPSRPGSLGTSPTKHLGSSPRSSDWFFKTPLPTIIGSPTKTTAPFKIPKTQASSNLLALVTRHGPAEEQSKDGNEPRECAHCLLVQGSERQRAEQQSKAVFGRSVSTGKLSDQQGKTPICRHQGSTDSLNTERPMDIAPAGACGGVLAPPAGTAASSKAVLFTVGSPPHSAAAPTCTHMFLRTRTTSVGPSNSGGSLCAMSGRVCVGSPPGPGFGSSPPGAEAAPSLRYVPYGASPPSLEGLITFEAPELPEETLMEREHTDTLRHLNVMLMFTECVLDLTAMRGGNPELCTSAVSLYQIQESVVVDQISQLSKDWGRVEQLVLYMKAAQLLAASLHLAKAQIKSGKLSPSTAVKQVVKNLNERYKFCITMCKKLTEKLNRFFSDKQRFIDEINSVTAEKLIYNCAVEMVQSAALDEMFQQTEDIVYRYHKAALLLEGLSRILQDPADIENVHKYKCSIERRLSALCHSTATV
# Sequence of ITK (Q08881 whole entry): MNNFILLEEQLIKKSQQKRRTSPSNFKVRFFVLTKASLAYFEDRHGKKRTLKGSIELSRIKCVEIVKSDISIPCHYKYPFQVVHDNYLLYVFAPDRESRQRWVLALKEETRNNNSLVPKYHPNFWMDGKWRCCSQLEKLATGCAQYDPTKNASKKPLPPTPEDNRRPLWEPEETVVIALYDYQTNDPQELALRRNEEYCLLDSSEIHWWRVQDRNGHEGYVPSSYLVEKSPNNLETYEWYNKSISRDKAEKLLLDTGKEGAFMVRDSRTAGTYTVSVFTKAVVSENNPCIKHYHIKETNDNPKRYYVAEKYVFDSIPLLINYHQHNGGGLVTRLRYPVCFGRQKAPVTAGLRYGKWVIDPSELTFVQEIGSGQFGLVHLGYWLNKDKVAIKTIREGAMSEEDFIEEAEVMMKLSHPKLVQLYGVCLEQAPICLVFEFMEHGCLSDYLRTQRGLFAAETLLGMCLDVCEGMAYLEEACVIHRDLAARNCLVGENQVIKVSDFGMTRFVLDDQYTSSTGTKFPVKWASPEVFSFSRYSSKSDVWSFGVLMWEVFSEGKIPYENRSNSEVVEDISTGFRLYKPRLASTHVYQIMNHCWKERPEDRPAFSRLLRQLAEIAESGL
# Sequence of CDKL1 (Q00532 whole entry): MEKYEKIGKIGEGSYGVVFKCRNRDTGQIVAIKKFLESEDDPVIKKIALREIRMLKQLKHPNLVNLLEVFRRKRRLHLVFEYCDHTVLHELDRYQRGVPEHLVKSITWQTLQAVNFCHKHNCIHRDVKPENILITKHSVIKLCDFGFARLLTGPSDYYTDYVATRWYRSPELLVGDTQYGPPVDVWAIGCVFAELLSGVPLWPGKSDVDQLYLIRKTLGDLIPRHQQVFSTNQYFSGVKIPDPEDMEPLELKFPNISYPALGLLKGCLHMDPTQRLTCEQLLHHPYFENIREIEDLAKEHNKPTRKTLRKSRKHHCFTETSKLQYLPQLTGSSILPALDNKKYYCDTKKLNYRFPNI
compound,measurement,setting,value
"CN(Cc1ccn2ncc(C(N)=O)c2c1)C(=O)Nc1ccc(OC(F)(F)F)cc1 [CDD-3031, 5-((1-methyl-3-(4-(trifluoromethoxy)phenyl)ureido)methyl)pyrazolo[1,5-a]pyridine-3-carboxamide]",IC50,[1],11.9 nM
same,receptor occupancy at 1 µM,"[2]; average, read-out: CDKL1 kinase occupancy, Average (%)",8.23%
same,receptor occupancy at 1 µM,"[2]; replicate 1, read-out: CDKL1 kinase occupancy, Replicate 1 (%)",2.8%
same,receptor occupancy at 1 µM,"[2]; replicate 2, read-out: CDKL1 kinase occupancy, Replicate 2 (%)",13.7%
same,receptor occupancy at 1 µM,"[3]; average, read-out: CSNK1A1L kinase occupancy, Average (%)",4.58%
same,receptor occupancy at 1 µM,"[3]; replicate 1, read-out: CSNK1A1L kinase occupancy, Replicate 1 (%)",9.24%
same,receptor occupancy at 1 µM,"[3]; replicate 2, read-out: CSNK1A1L kinase occupancy, Replicate 2 (%)",-0.08%
same,receptor occupancy at 1 µM,"[4]; average, read-out: ITK kinase occupancy, Average (%)",5.61%
same,receptor occupancy at 1 µM,"[4]; replicate 1, read-out: ITK kinase occupancy, Replicate 1 (%)",14.2%
same,receptor occupancy at 1 µM,"[4]; replicate 2, read-out: ITK kinase occupancy, Replicate 2 (%)",-2.94%
same,receptor occupancy at 1 µM,"[5]; average, read-out: MAP3K12 kinase occupancy, Average (%)",7.58%
same,receptor occupancy at 1 µM,"[5]; replicate 1, read-out: MAP3K12 kinase occupancy, Replicate 1 (%)",21.2%
same,receptor occupancy at 1 µM,"[5]; replicate 2, read-out: MAP3K12 kinase occupancy, Replicate 2 (%)",-6.05%
same,receptor occupancy at 1 µM,"[6]; average, read-out: NTRK1 kinase occupancy, Average (%)",73.2%
same,receptor occupancy at 1 µM,"[6]; replicate 1, read-out: NTRK1 kinase occupancy, Replicate 1 (%)",71.4%
same,receptor occupancy at 1 µM,"[6]; replicate 2, read-out: NTRK1 kinase occupancy, Replicate 2 (%)",75%
same,receptor occupancy at 1 µM,"[7]; average, read-out: NTRK2 kinase occupancy, Average (%)",92.9%
same,receptor occupancy at 1 µM,"[7]; replicate 1, read-out: NTRK2 kinase occupancy, Replicate 1 (%)",94.6%
same,receptor occupancy at 1 µM,"[7]; replicate 2, read-out: NTRK2 kinase occupancy, Replicate 2 (%)",91.2%
same,receptor occupancy at 1 µM,"[8]; average, read-out: PKMYT1 kinase occupancy, Average (%)",4.17%
same,receptor occupancy at 1 µM,"[8]; replicate 1, read-out: PKMYT1 kinase occupancy, Replicate 1 (%)",5.47%
same,receptor occupancy at 1 µM,"[8]; replicate 2, read-out: PKMYT1 kinase occupancy, Replicate 2 (%)",2.88%
same,receptor occupancy at 1 µM,"[9]; average, read-out: SGK1 kinase occupancy, Average (%)",4.31%
same,receptor occupancy at 1 µM,"[9]; replicate 1, read-out: SGK1 kinase occupancy, Replicate 1 (%)",1.93%
same,receptor occupancy at 1 µM,"[9]; replicate 2, read-out: SGK1 kinase occupancy, Replicate 2 (%)",6.69%
same,receptor occupancy at 1 µM,"[10]; average, read-out: STK11 kinase occupancy, Average (%)",5.85%
same,receptor occupancy at 1 µM,"[10]; replicate 1, read-out: STK11 kinase occupancy, Replicate 1 (%)",6.96%
same,receptor occupancy at 1 µM,"[10]; replicate 2, read-out: STK11 kinase occupancy, Replicate 2 (%)",4.74%
same,receptor occupancy at 1 µM,"[11]; average, read-out: ULK2 kinase occupancy, Average (%)",4.48%
same,receptor occupancy at 1 µM,"[11]; replicate 1, read-out: ULK2 kinase occupancy, Replicate 1 (%)",-5.12%
same,receptor occupancy at 1 µM,"[11]; replicate 2, read-out: ULK2 kinase occupancy, Replicate 2 (%)",14.1%
same,receptor occupancy at 1 µM,"[12]; average, read-out: WEE1 kinase occupancy, Average (%)",4.94%
same,receptor occupancy at 1 µM,"[12]; replicate 1, read-out: WEE1 kinase occupancy, Replicate 1 (%)",9.23%
same,receptor occupancy at 1 µM,"[12]; replicate 2, read-out: WEE1 kinase occupancy, Replicate 2 (%)",0.65%
same,AUC(0-inf),"[13]; mouse, blood",478 ± 87.8 µM·h
same,AUC(0-t),"[13]; mouse, blood",418 ± 62.1 µM·h
same,Cmax,"[13]; mouse, blood",37.1 ± 4.88 µM
same,Tmax,"[13]; mouse, blood",1.17 ± 0.76 h
same,half-life,"[13]; mouse, blood",8.03 ± 1.25 h
same,MRT last,"[13]; mouse, blood, read-out: MRT0-t",7.23 ± 0.38 h
same,MRT inf,"[13]; mouse, blood, read-out: MRT0-∞",10.7 ± 1.52 h
same,CL/F,[13],0.11 ± 0.02 mg/(hr*μmol/L)/kg
same,Vd/F,[13],1.22 ± 0.05 mg/(μmol/L)/kg
same,brain uptake relative to controls,[14]; brain and plasma 24 hours post-administration,"low brain penetration; also recorded: relatively low brain uptake compared to chlorpromazine (positive control), but a high uptake as compared to hydroxyzine (negative control)"
same,concentration at 24 h,"[14]; mouse, brain, 24 h, read-out: Brain Concentration at 24 h (ng/mg)",350 ng/g
same,potential liver and other tissue toxicity,"[15]; high dose, 50 mg/kg",minimal effects
same,ALT,[15]; [20],35.89 IU/L and 24.49 IU/L and 52.86 IU/L and 48.18 IU/L
same,AST,[15]; [20],86.81 IU/L and 64.53 IU/L and 68.33 IU/L and 72.84 IU/L
same,endometriotic lesion growth,[16],inhibiting endometriotic lesion growth
same,effect on liver and/or kidney weight and/or serum elevation of ALT and AST,"[17]; 10 mg/kg, mice with endometriotic lesions",little to no effect
same,ALT (Mean ± SD),[17]; [21],16.6 ± 2.6
same,AST (Mean ± SD),[17]; [21],46.9 ± 23.4
same,impact on liver and kidney weights,[17]; mice treated for 14 days,no significant impact
same,IC50,[18],153 nM
same,IC50,[19],25.3 nM
